Results published in patent US7196229B2, “Benzoylcyclohexenone derivatives” (BASF Aktiengesellschaft, priority 2001, dated 2007).

How the values were obtained:
[1] = tested on: ECHCG; assay: greenhouse post-emergence herbicidal test; format: in vivo, barnyard grass; settings: application rates of 0.125 or 0.0625 kg/ha
Excerpt: (§1) The seeds of the test plants were sown separately for each species. For the post-emergence treatment, the test plants were first grown to a height of from 3 to 15 cm, depending on the plant habit, and only then treated with the active compounds which had been suspended or emulsified in water. The test plants were for this purpose either sown directly and grown in the same containers, or they were first grown separately as seedlings and transplanted into the test containers a few days prior to treatment. The application rate for the post-emergence treatment was 0.125 and 0.0625 kg of a.s. (active substance)/ha. Depending on the species, the plants were kept at 10–25° C. or 20–35° C. The test period extended over 2 to 4 weeks. During this time, the plants were tended, and their response to the individual treatments was evaluated. The evaluation was carried out using a scale from 0 to 100. 100 means no emergence of the plants, or complete destruction of at least the aerial parts and 0 means no damage, or normal course of growth. The plants used in the greenhouse experiments were of the following species: [table]

[2] = tested on: ABUTH; assay: greenhouse post-emergence herbicidal test; format: in vivo, velvetleaf; settings: application rates of 0.125 or 0.0625 kg/ha
Excerpt: as §1

[3] = tested on: POLPE; assay: greenhouse post-emergence herbicidal test; format: in vivo, ladys thumb; settings: application rates of 0.125 or 0.0625 kg/ha
Excerpt: as §1

[4] = tested on: SETFA; assay: greenhouse post-emergence herbicidal test; format: in vivo, giant foxtail; settings: application rates of 0.125 or 0.0625 kg/ha
Excerpt: as §1

[5] = tested on: CHEAL; assay: greenhouse post-emergence herbicidal test; format: in vivo, lambsquarters; settings: application rates of 0.125 or 0.0625 kg/ha
Excerpt: as §1

[6] = tested on: AMARE; assay: greenhouse post-emergence herbicidal test; format: in vivo, redroot pigweed; settings: application rates of 0.125 or 0.0625 kg/ha
Excerpt: as §1

[7] = tested on: PHBPU; assay: greenhouse post-emergence herbicidal test; format: in vivo, morning glory; settings: application rates of 0.125 or 0.0625 kg/ha
Excerpt: as §1

| melting point | Structure (SMILES) | herbicidal post-emergence activity against ECHCG [1] | herbicidal post-emergence activity against CHEAL [5] | also measured |
| --- | --- | --- | --- | --- |
| 137 to 140 °C | Cc1c(C(=O)C2=C(O)CCCC2=O)ccc(Cl)c1S(C)(=O)=O [Compound 2.6] | very good |  | herbicidal post-emergence activity against ABUTH [2]: very good; herbicidal post-emergence activity against POLPE [3]: very good; herbicidal post-emergence activity against SETFA [4]: very good |
| 278 to 283 °C | Cc1c(C(=O)C2=C(n3cccn3)CC(C)CC2=O)ccc(S(C)(=O)=O)c1S(C)(=O)=O (centres unmarked) [Compound 3.2] |  |  |  |
| 64 to 69 °C | Cc1c(C(=O)C2=C(O)CCCC2=O)ccc(OC(F)F)c1S(C)(=O)=O [Compound 2.10] |  |  |  |
|  | Cc1c(C(=O)C2=C(O)CC(C)(C)CC2=O)ccc(S(C)(=O)=O)c1S(C)(=O)=O [Compound 2.5] | very good | very good | herbicidal post-emergence activity against SETFA [4]: very good; herbicidal post-emergence activity against AMARE [6]: very good |
| 121 to 129 °C | COc1ccc(C(=O)C2=C(O)CCCC2=O)c(C)c1S(C)(=O)=O [Compound 2.7] |  |  |  |
| 301 to 302 °C | Cc1c(C(=O)C2=C(O)CCCC2=O)ccc(S(C)(=O)=O)c1S(C)(=O)=O [Compound 2.1, 2-[2-Methyl-3,4-di(methylsulfonyl)benzoyl]cyclohexane-1,3-dione] | very good | very good | herbicidal post-emergence activity against ABUTH [2]: very good; herbicidal post-emergence activity against POLPE [3]: very good |
|  | Cc1c(C(=O)C2=C(O)CCC(C)(C)C2=O)ccc(S(C)(=O)=O)c1S(C)(=O)=O [Compound 2.4] | very good | very good | herbicidal post-emergence activity against SETFA [4]: very good; herbicidal post-emergence activity against PHBPU [7]: very good |
| 235 to 239 °C | Cc1c(C(=O)C2=C(O)CC(C)CC2=O)ccc(S(C)(=O)=O)c1S(C)(=O)=O (centres unmarked) [Compound 2.3] | very good | very good | herbicidal post-emergence activity against ABUTH [2]: very good; herbicidal post-emergence activity against PHBPU [7]: very good |
| 275 to 277 °C | Cc1c(C(=O)C2=C(n3cccn3)CCCC2=O)ccc(S(C)(=O)=O)c1S(C)(=O)=O [Compound 3.1] |  |  |  |
| 106 to 112 °C | COc1ccc(C(=O)C2=C(O)CC(C)CC2=O)c(C)c1S(C)(=O)=O (centres unmarked) [Compound 2.9] |  |  |  |
| 163 to 165 °C | COc1ccc(C(=O)C2=C(O)CC(C)(C)CC2=O)c(C)c1S(C)(=O)=O [Compound 2.8] |  |  |  |
